According to ChEMBL document CHEMBL1124116 (J Med Chem, 1988):
pIC50: −log10 of the molar value.

Biological target: T1, Cholesterol side-chain cleavage enzyme, mitochondrial (Bos taurus, UniProt P00189)
T1 sequence (P00189 whole entry): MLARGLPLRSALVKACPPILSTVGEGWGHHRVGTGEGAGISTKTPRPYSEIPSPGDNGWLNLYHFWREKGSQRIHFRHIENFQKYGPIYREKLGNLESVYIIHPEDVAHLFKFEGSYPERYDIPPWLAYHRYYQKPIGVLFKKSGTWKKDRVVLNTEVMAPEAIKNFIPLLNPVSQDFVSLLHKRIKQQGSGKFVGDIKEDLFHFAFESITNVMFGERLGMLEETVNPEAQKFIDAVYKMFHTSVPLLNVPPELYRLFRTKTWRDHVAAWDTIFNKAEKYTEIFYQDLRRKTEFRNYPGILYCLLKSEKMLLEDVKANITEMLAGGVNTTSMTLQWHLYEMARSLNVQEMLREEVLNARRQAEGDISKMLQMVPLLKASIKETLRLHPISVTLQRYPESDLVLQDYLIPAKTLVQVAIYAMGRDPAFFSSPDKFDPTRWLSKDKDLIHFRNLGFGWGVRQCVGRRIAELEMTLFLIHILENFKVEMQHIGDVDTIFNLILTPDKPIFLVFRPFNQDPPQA
Details: read-out: I50

| Compound | pIC50 |
| --- | --- |
| CC(C)N1C(=O)C2CC2(c2ccc(N)cc2)C1=O (stereo not drawn) | 3.49 |
| CC(C)(C)CN1C(=O)C2CC2(c2ccc(N)cc2)C1=O (stereo not drawn) | 3.53 |
| CN1C(=O)C2CC2(c2ccc(N)cc2)C1=O (stereo not drawn) | 3.34 |
| Nc1ccc(C23CC2C(=O)N(Cc2ccccc2)C3=O)cc1 (stereo not drawn) | 3.54 |

Continued, values first:

| pIC50 | Compound |
| --- | --- |
| 3.51 | CC(C)CN1C(=O)C2CC2(c2ccc(N)cc2)C1=O (stereo not drawn) |
| 3.56 | C=CCN1C(=O)C2CC2(c2ccc(N)cc2)C1=O (stereo not drawn) |
| 3.53 | C#CCN1C(=O)C2CC2(c2ccc(N)cc2)C1=O (stereo not drawn) |
| 3.52 | CCN1C(=O)C2CC2(c2ccc(N)cc2)C1=O (stereo not drawn) |
